This is an account of results in patent CN114767685A, “四氢叶酸在抑菌或者预防或治疗眼部疾病中的用途” (Peking University Third Hospital Peking University Third …, priority 2022, dated 2022).

Test [1] deals with Fusarium (镰刀菌). In words: Fusarium growth curve (OD) in liquid amino acid media, 96-well plate. To be noted: THFA 10 mM, each amino acid group, 29℃, 72 h, Figure 5B-F. It counts as cell-based.
Test [2] relates to Fusarium (镰刀菌). In words: Inhibition of Fusarium on solid media with mixed amino acids as nitrogen source (simulated cornea). It counts as cell-based. The note with it: THFA 10 mM, cultured as Example 1.
The test system of test [3] is Fusarium (镰刀菌). In words: Inhibition of Fusarium colony growth on solid medium with proline as sole nitrogen source (pro- medium). To be noted: 29℃, 72 h, Figure 2. Type of test: cell-based, Fusarium (CGMCC3.5840).

Structures are written as SMILES.

Turning to `Nc1nc2c(c(=O)[nH]1)N[C@H](CNc1ccc(C(=O)N[C@@H](CCC(=O)O)C(=O)O)cc1)CN2` [THFA, 5,6,7,8-四氢叶酸], in the test on Fusarium (镰刀菌) [1], the “Fusarium growth (absorbance, OD, growth curve)” value is “镰刀菌生长均明显下降”. The “inhibition of Fusarium growth” value in the test on Fusarium (镰刀菌) [2] (solid media with different mixed amino acid nitrogen sources (taurine, glutamine, glycine, proline), Figure 4) is on record as “均能够显著抑制镰刀菌生长”; with Fusarium (镰刀菌) [3] (THFA 1.25, 2.5, 5, 10, 20 mM vs 0 mM), “镰刀菌的生长受到明显抑制”. The colony pigment result in the test with Fusarium (镰刀菌) [2] (solid media with different mixed amino acids, Figure 4B-D) is “色素明显减弱”. The “correlation of degree of inhibition with THFA concentration” value in the test on Fusarium (镰刀菌) [3] (THFA 0-20 mM) is reported as “抑制程度与THFA浓度具有相关性”. In addition, the colony diameter entry in the test on Fusarium (镰刀菌) [3] (THFA 5 mM) is listed as “明显小于2.5mM、1.25mM和0mM组”; with Fusarium (镰刀菌) [3] (THFA 10 mM), “均显著小于5mM组”; in the test with Fusarium (镰刀菌) [3] (THFA 20 mM), “均显著小于5mM组”.
